We go through nine compounds from patent US10448639B2, “Fungicidal pyrazoles” (FMC CORPORATION, priority 2009, dated 2019).

One experiment relates to Botrytis cinerea. Nature of the experiment: Test B: tomato Botrytis, preventive spray on tomato seedlings, visual disease rating. Particulars: tomato Botrytis, preventive spray; 100 = 100% disease control, 0 = no control.
As for `COc1cc(F)c(Nc2c(-c3c(F)cc(F)cc3F)c(C)nn2C)c(F)c1` [compound 78], the “Test B rating (% disease control)” value is on record as 99%.

On to `Cc1nn(C)c(Oc2ccc(Cl)cc2Cl)c1-c1c(F)cc(F)cc1F` [compound 38], for which the “Test B rating (% disease control)” value worked out at 99%.

`COc1cc(F)c(-c2c(C)nn(C)c2Nc2ccc(C)cc2)c(F)c1` [compound 50]: the “Test B rating (% disease control)” value stood at 99%.

The experiment is the same for the next values; noted with them: tomato Botrytis; 100 = 100% disease control, 0 = no control relative to controls.
With `Cc1nn(C)c(Oc2cc(C#N)c(C#N)cc2Cl)c1-c1c(F)cc(F)cc1F` [compound 163], the “Test B rating (% disease control)” value came out at 0%.

In the case of `Cc1nn(C)c(Nc2cc(F)ccc2F)c1-c1c(F)cccc1F` [compound 197], the “Test B rating (% disease control)” value stood at 97%.

For the compound `COc1cccc(Nc2c(-c3c(F)cccc3F)c(C)nn2C)c1` [compound 200], the “Test B rating (% disease control)” value is on record as 82%.

Still in this experiment, the particulars now being: tomato Botrytis; 100 = 100% disease control, 0 = no disease control relative to controls.
Take `Cc1nn(C)c(Nc2ccc(F)cc2Cl)c1-c1ccc(F)cc1Br` [compound 314]: the “Test B disease control rating” value came to 100%.

As to `COc1ccc(Nc2c(-c3ccc(Cl)cc3Cl)c(C)nn2C)cc1` [compound 355], the “Test B disease control rating” value is reported as 99%.

Regarding `COc1ccc(-c2c(C)nn(C)c2Oc2ccc(C#N)cc2F)c(Br)c1` [compound 319], the “Test B disease control rating” value turned out to be 92%.

A further experiment deals with Septoria nodorum. Nature of the experiment: Test F: Septoria glume blotch, preventive spray on wheat seedlings, visual disease rating. Particulars: Septoria glume blotch on wheat, preventive spray; 100 = 100% disease control, 0 = no control.
For the compound `COc1cc(F)c(Nc2c(-c3c(F)cc(F)cc3F)c(C)nn2C)c(F)c1` [compound 78], the “Test F rating (% disease control)” value worked out at 0%.

As for `Cc1nn(C)c(Oc2ccc(Cl)cc2Cl)c1-c1c(F)cc(F)cc1F` [compound 38], the “Test F rating (% disease control)” value is listed as 0%.

Regarding `COc1cc(F)c(-c2c(C)nn(C)c2Nc2ccc(C)cc2)c(F)c1` [compound 50], the “Test F rating (% disease control)” value came out at 0%.

Still in this experiment, the particulars now being: Septoria glume blotch on wheat; 100 = 100% disease control, 0 = no disease control relative to controls.
For the compound `Cc1nn(C)c(Nc2ccc(F)cc2Cl)c1-c1ccc(F)cc1Br` [compound 314], the “Test F disease control rating” value turned out to be 0%.

For the compound `COc1ccc(Nc2c(-c3ccc(Cl)cc3Cl)c(C)nn2C)cc1` [compound 355], the “Test F disease control rating” value is recorded as 0%.

Turning to `COc1ccc(-c2c(C)nn(C)c2Oc2ccc(C#N)cc2F)c(Br)c1` [compound 319], the “Test F disease control rating” value is 100%.

Still in this experiment, the particulars now being: Septoria glume blotch; 100 = 100% disease control, 0 = no control relative to controls.
For `Cc1nn(C)c(Oc2cc(C#N)c(C#N)cc2Cl)c1-c1c(F)cc(F)cc1F` [compound 163], the “Test F rating (% disease control)” value was 0%.

In the case of `Cc1nn(C)c(Nc2cc(F)ccc2F)c1-c1c(F)cccc1F` [compound 197], the “Test F rating (% disease control)” value was 95%.

Turning to `COc1cccc(Nc2c(-c3c(F)cccc3F)c(C)nn2C)c1` [compound 200], the “Test F rating (% disease control)” value was 0%.

Another experiment relates to Septoria tritici. Put plainly: Test G: wheat leaf blotch, preventive spray on wheat seedlings, visual disease rating. Particulars: wheat leaf blotch, preventive spray; 100 = 100% disease control, 0 = no control.
As to `COc1cc(F)c(Nc2c(-c3c(F)cc(F)cc3F)c(C)nn2C)c(F)c1` [compound 78], the “Test G rating (% disease control)” value was found to be 98%.

As to `Cc1nn(C)c(Oc2ccc(Cl)cc2Cl)c1-c1c(F)cc(F)cc1F` [compound 38], the “Test G rating (% disease control)” value turned out to be 97%.

Take `COc1cc(F)c(-c2c(C)nn(C)c2Nc2ccc(C)cc2)c(F)c1` [compound 50]: the “Test G rating (% disease control)” value is on record as 100%.

Staying with this experiment, now noted: wheat leaf blotch, sprayed the day before inoculation; 100 = 100% disease control, 0 = no disease control relative to controls.
Turning to `Cc1nn(C)c(Nc2ccc(F)cc2Cl)c1-c1ccc(F)cc1Br` [compound 314], the “Test G disease control rating” value came to 100%.

Consider `COc1ccc(Nc2c(-c3ccc(Cl)cc3Cl)c(C)nn2C)cc1` [compound 355], for which the “Test G disease control rating” value worked out at 100%.

As for `COc1ccc(-c2c(C)nn(C)c2Oc2ccc(C#N)cc2F)c(Br)c1` [compound 319], the “Test G disease control rating” value turned out to be 100%.

The same experiment, now with this note: wheat leaf blotch; 100 = 100% disease control, 0 = no control relative to controls.
In the case of `Cc1nn(C)c(Oc2cc(C#N)c(C#N)cc2Cl)c1-c1c(F)cc(F)cc1F` [compound 163], the “Test G rating (% disease control)” value is 83%.

With `Cc1nn(C)c(Nc2cc(F)ccc2F)c1-c1c(F)cccc1F` [compound 197], the “Test G rating (% disease control)” value came to 99%.

For `COc1cccc(Nc2c(-c3c(F)cccc3F)c(C)nn2C)c1` [compound 200], the “Test G rating (% disease control)” value came to 97%.

In another experiment the test system is Erysiphe graminis f sp. tritici. Put plainly: Test J: wheat powdery mildew, preventive spray on wheat seedlings, visual disease rating. Particulars: wheat powdery mildew, preventive spray; 100 = 100% disease control, 0 = no control.
With `COc1cc(F)c(Nc2c(-c3c(F)cc(F)cc3F)c(C)nn2C)c(F)c1` [compound 78], the “Test J rating (% disease control)” value was 91%.

Consider `Cc1nn(C)c(Oc2ccc(Cl)cc2Cl)c1-c1c(F)cc(F)cc1F` [compound 38], for which the “Test J rating (% disease control)” value worked out at 99%.

On to `COc1cc(F)c(-c2c(C)nn(C)c2Nc2ccc(C)cc2)c(F)c1` [compound 50], for which the “Test J rating (% disease control)” value was 99%.

The same experiment, now with this note: wheat powdery mildew, sprayed the day before inoculation; 100 = 100% disease control, 0 = no disease control relative to controls.
As to `Cc1nn(C)c(Nc2ccc(F)cc2Cl)c1-c1ccc(F)cc1Br` [compound 314], the “Test J disease control rating” value came out at 100%.

Turning to `COc1ccc(Nc2c(-c3ccc(Cl)cc3Cl)c(C)nn2C)cc1` [compound 355], the “Test J disease control rating” value was 0%.

As to `COc1ccc(-c2c(C)nn(C)c2Oc2ccc(C#N)cc2F)c(Br)c1` [compound 319], the “Test J disease control rating” value came out at 95%.

Still in this experiment, the particulars now being: wheat powdery mildew; 100 = 100% disease control, 0 = no control relative to controls.
Consider `Cc1nn(C)c(Oc2cc(C#N)c(C#N)cc2Cl)c1-c1c(F)cc(F)cc1F` [compound 163], for which the “Test J rating (% disease control)” value came out at 0%.

Turning to `Cc1nn(C)c(Nc2cc(F)ccc2F)c1-c1c(F)cccc1F` [compound 197], the “Test J rating (% disease control)” value came to 96%.

Turning to `COc1cccc(Nc2c(-c3c(F)cccc3F)c(C)nn2C)c1` [compound 200], the “Test J rating (% disease control)” value was determined as 94%.

A further experiment relates to Puccinia recondita f. sp. tritici. Nature of the experiment: Test H: wheat leaf rust, curative spray on inoculated wheat seedlings, visual disease rating. Particulars: wheat leaf rust, curative spray; 100 = 100% disease control, 0 = no control.
`COc1cc(F)c(Nc2c(-c3c(F)cc(F)cc3F)c(C)nn2C)c(F)c1` [compound 78]: the “Test H rating (% disease control)” value was determined as 0%.

As for `Cc1nn(C)c(Oc2ccc(Cl)cc2Cl)c1-c1c(F)cc(F)cc1F` [compound 38], the “Test H rating (% disease control)” value turned out to be 0%.

Regarding `COc1cc(F)c(-c2c(C)nn(C)c2Nc2ccc(C)cc2)c(F)c1` [compound 50], the “Test H rating (% disease control)” value amounted to 0%.

Staying with this experiment, now noted: wheat leaf rust, curative; 100 = 100% disease control, 0 = no control relative to controls.
Take `Cc1nn(C)c(Oc2cc(C#N)c(C#N)cc2Cl)c1-c1c(F)cc(F)cc1F` [compound 163]: the “Test H rating (% disease control)” value was found to be 0%.

With `Cc1nn(C)c(Nc2cc(F)ccc2F)c1-c1c(F)cccc1F` [compound 197], the “Test H rating (% disease control)” value turned out to be 0%.

`COc1cccc(Nc2c(-c3c(F)cccc3F)c(C)nn2C)c1` [compound 200]: the “Test H rating (% disease control)” value is 0%.

Staying with this experiment, now noted: wheat leaf rust, sprayed after inoculation; 100 = 100% disease control, 0 = no disease control relative to controls.
With `Cc1nn(C)c(Nc2ccc(F)cc2Cl)c1-c1ccc(F)cc1Br` [compound 314], the “Test H disease control rating” value worked out at 94%.

Turning to `COc1ccc(Nc2c(-c3ccc(Cl)cc3Cl)c(C)nn2C)cc1` [compound 355], the “Test H disease control rating” value amounted to 3%.

Consider `COc1ccc(-c2c(C)nn(C)c2Oc2ccc(C#N)cc2F)c(Br)c1` [compound 319], for which the “Test H disease control rating” value is reported as 0%.

A further experiment has the same test system. Nature of the experiment: Test I: wheat leaf rust, preventive spray on wheat seedlings, visual disease rating. The note with it: wheat leaf rust, preventive spray; 100 = 100% disease control, 0 = no control.
As for `COc1cc(F)c(Nc2c(-c3c(F)cc(F)cc3F)c(C)nn2C)c(F)c1` [compound 78], the “Test I rating (% disease control)” value was found to be 89%.

Consider `Cc1nn(C)c(Oc2ccc(Cl)cc2Cl)c1-c1c(F)cc(F)cc1F` [compound 38], for which the “Test I rating (% disease control)” value is reported as 99%.

`COc1cc(F)c(-c2c(C)nn(C)c2Nc2ccc(C)cc2)c(F)c1` [compound 50]: the “Test I rating (% disease control)” value amounted to 98%.

The same experiment, now with this note: wheat leaf rust, preventive; 100 = 100% disease control, 0 = no control relative to controls.
In the case of `Cc1nn(C)c(Oc2cc(C#N)c(C#N)cc2Cl)c1-c1c(F)cc(F)cc1F` [compound 163], the “Test I rating (% disease control)” value is reported as 88%.

For the compound `Cc1nn(C)c(Nc2cc(F)ccc2F)c1-c1c(F)cccc1F` [compound 197], the “Test I rating (% disease control)” value is 79%.

Regarding `COc1cccc(Nc2c(-c3c(F)cccc3F)c(C)nn2C)c1` [compound 200], the “Test I rating (% disease control)” value was 0%.

The experiment is the same for the next values; noted with them: wheat leaf rust, sprayed the day before inoculation; 100 = 100% disease control, 0 = no disease control relative to controls.
In the case of `Cc1nn(C)c(Nc2ccc(F)cc2Cl)c1-c1ccc(F)cc1Br` [compound 314], the “Test I disease control rating” value was found to be 100%.

`COc1ccc(Nc2c(-c3ccc(Cl)cc3Cl)c(C)nn2C)cc1` [compound 355]: the “Test I disease control rating” value was found to be 91%.

As for `COc1ccc(-c2c(C)nn(C)c2Oc2ccc(C#N)cc2F)c(Br)c1` [compound 319], the “Test I disease control rating” value is reported as 99%.

A further experiment relates to Alternaria solani. Nature of the experiment: Test C: tomato early blight, preventive spray on tomato seedlings, visual disease rating. The note with it: tomato early blight, preventive spray; 100 = 100% disease control, 0 = no control.
Take `COc1cc(F)c(Nc2c(-c3c(F)cc(F)cc3F)c(C)nn2C)c(F)c1` [compound 78]: the “Test C rating (% disease control)” value turned out to be 82%.

For `Cc1nn(C)c(Oc2ccc(Cl)cc2Cl)c1-c1c(F)cc(F)cc1F` [compound 38], the “Test C rating (% disease control)” value is on record as 9%.

With `COc1cc(F)c(-c2c(C)nn(C)c2Nc2ccc(C)cc2)c(F)c1` [compound 50], the “Test C rating (% disease control)” value was 57%.

The same experiment, now with this note: tomato early blight; 100 = 100% disease control, 0 = no control relative to controls.
Take `Cc1nn(C)c(Oc2cc(C#N)c(C#N)cc2Cl)c1-c1c(F)cc(F)cc1F` [compound 163]: the “Test C rating (% disease control)” value is reported as 9%.

Consider `Cc1nn(C)c(Nc2cc(F)ccc2F)c1-c1c(F)cccc1F` [compound 197], for which the “Test C rating (% disease control)” value came out at 0%.

On to `COc1cccc(Nc2c(-c3c(F)cccc3F)c(C)nn2C)c1` [compound 200], for which the “Test C rating (% disease control)” value is recorded as 0%.

The experiment is the same for the next values; noted with them: tomato early blight; 100 = 100% disease control, 0 = no disease control relative to controls.
In the case of `Cc1nn(C)c(Nc2ccc(F)cc2Cl)c1-c1ccc(F)cc1Br` [compound 314], the “Test C disease control rating” value is reported as 95%.

`COc1ccc(Nc2c(-c3ccc(Cl)cc3Cl)c(C)nn2C)cc1` [compound 355]: the “Test C disease control rating” value is listed as 0%.

For the compound `COc1ccc(-c2c(C)nn(C)c2Oc2ccc(C#N)cc2F)c(Br)c1` [compound 319], the “Test C disease control rating” value is 88%.
